Measurements published in ChEMBL document CHEMBL5120939, “Novel Isoindolinone-Based Analogs of the Natural Cyclic Peptide Fenestin A: Synthesis and Antitumor Activity” (ACS Med Chem Lett, 2022).

Columns and labels:
Type in all cases: functional
HeLa [1] = experiment: Induction of apoptosis in human HeLa cells assessed as necrotic cells at 26.1 uM incubated for 48 hrs by annexinV-FITC/propidium iodide staining based flow cytometry analysis (reference value: 0.0%)
HeLa [2] = experiment: Induction of apoptosis in human HeLa cells assessed as late apoptotic cells at 26.1 uM incubated for 48 hrs by annexinV-FITC/propidium iodide staining based flow cytometry analysis (reference value: 0.1%)
HeLa [3] = experiment: Induction of apoptosis in human HeLa cells assessed as early apoptotic cells at 26.1 uM incubated for 48 hrs by annexinV-FITC/propidium iodide staining based flow cytometry analysis (reference value: 0.1%)
HeLa [4] = experiment: Induction of apoptosis in human HeLa cells assessed as viable cells at 26.1 uM incubated for 48 hrs by annexinV-FITC/propidium iodide staining based flow cytometry analysis (reference value: 99.8%); conditions: read-out: Activity
HeLa [5] = experiment: Induction of apoptosis in human HeLa cells assessed as early apoptotic cells at 13.2 uM incubated for 48 hrs by annexinV-FITC/propidium iodide staining based flow cytometry analysis (reference value: 0.1%)
HeLa [6] = experiment: Induction of apoptosis in human HeLa cells assessed as necrotic cells at 13.2 uM incubated for 48 hrs by annexinV-FITC/propidium iodide staining based flow cytometry analysis (reference value: 0.0%)
HeLa [7] = experiment: Induction of apoptosis in human HeLa cells assessed as viable cells at 19.6 uM incubated for 48 hrs by annexinV-FITC/propidium iodide staining based flow cytometry analysis (reference value: 99.8%); conditions: read-out: Activity
HeLa [8] = experiment: Induction of apoptosis in human HeLa cells assessed as early apoptotic cells at 19.6 uM incubated for 48 hrs by annexinV-FITC/propidium iodide staining based flow cytometry analysis (reference value: 0.1%)
HeLa [9] = experiment: Induction of apoptosis in human HeLa cells assessed as late apoptotic cells at 19.6 uM incubated for 48 hrs by annexinV-FITC/propidium iodide staining based flow cytometry analysis (reference value: 0.1%)
HeLa [10] = experiment: Induction of cell cycle arrest in human HeLa cells assessed as <2N cells at 12.3 uM incubated for 12 hrs by RNAse A/PI staining based flow cytometric analysis (reference value: 41.6%)
HeLa [11] = experiment: Induction of cell cycle arrest in human HeLa cells assessed as 2N cells at 12.3 uM incubated for 12 hrs by RNAse A/PI staining based flow cytometric analysis (reference value: 29.9%)
HeLa [12] = experiment: Induction of cell cycle arrest in human HeLa cells assessed as S phase cells at 12.3 uM incubated for 12 hrs by RNAse A/PI staining based flow cytometric analysis (reference value: 20.5%)
HeLa [13] = experiment: Induction of cell cycle arrest in human HeLa cells assessed as 4N cells at 12.3 uM incubated for 12 hrs by RNAse A/PI staining based flow cytometric analysis (reference value: 5.37%)
HeLa [14] = experiment: Induction of cell cycle arrest in human HeLa cells assessed as 2N cells at 12.3 uM incubated for 24 hrs by RNAse A/PI staining based flow cytometric analysis (reference value: 29.9%)
HeLa [15] = experiment: Induction of cell cycle arrest in human HeLa cells assessed as S phase cells at 12.3 uM incubated for 24 hrs by RNAse A/PI staining based flow cytometric analysis (reference value: 20.5%)
HeLa [16] = experiment: Induction of cell cycle arrest in human HeLa cells assessed as >4N cells at 12.3 uM incubated for 24 hrs by RNAse A/PI staining based flow cytometric analysis (reference value: 2.61%)
HeLa [17] = experiment: Induction of cell cycle arrest in human HeLa cells assessed as 2N cells at 6.2 uM incubated for 48 hrs by RNAse A/PI staining based flow cytometric analysis (reference value: 29.9%)
HeLa [18] = experiment: Induction of cell cycle arrest in human HeLa cells assessed as S phase cells at 6.2 uM incubated for 48 hrs by RNAse A/PI staining based flow cytometric analysis (reference value: 20.5%)
HeLa [19] = experiment: Induction of cell cycle arrest in human HeLa cells assessed as 4N cells at 6.2 uM incubated for 48 hrs by RNAse A/PI staining based flow cytometric analysis (reference value: 5.37%)
HeLa [20] = experiment: Induction of cell cycle arrest in human HeLa cells assessed as >4N cells at 6.2 uM incubated for 48 hrs by RNAse A/PI staining based flow cytometric analysis (reference value: 2.61%)
HeLa [21] = experiment: Induction of cell cycle arrest in human HeLa cells assessed as <2N cells at 12.3 uM incubated for 48 hrs by RNAse A/PI staining based flow cytometric analysis (reference value: 41.6%)
HeLa [22] = experiment: Induction of cell cycle arrest in human HeLa cells assessed as 2N cells at 12.3 uM incubated for 48 hrs by RNAse A/PI staining based flow cytometric analysis (reference value: 29.9%)
HeLa [23] = experiment: Induction of cell cycle arrest in human HeLa cells assessed as S phase cells at 12.3 uM incubated for 48 hrs by RNAse A/PI staining based flow cytometric analysis (reference value: 20.5%)
HeLa [24] = experiment: Induction of cell cycle arrest in human HeLa cells assessed as <2N cells at 24.6 uM incubated for 48 hrs by RNAse A/PI staining based flow cytometric analysis (reference value: 41.6%)
HeLa [25] = experiment: Induction of cell cycle arrest in human HeLa cells assessed as 2N cells at 24.6 uM incubated for 48 hrs by RNAse A/PI staining based flow cytometric analysis (reference value: 29.9%)
HeLa [26] = experiment: Induction of cell cycle arrest in human HeLa cells assessed as S phase cells at 24.6 uM incubated for 48 hrs by RNAse A/PI staining based flow cytometric analysis (reference value: 20.5%)
HeLa [27] = experiment: Induction of cell cycle arrest in human HeLa cells assessed as 4N cells at 24.6 uM incubated for 48 hrs by RNAse A/PI staining based flow cytometric analysis (reference value: 5.37%)
HeLa [28] = experiment: Induction of cell cycle arrest in human HeLa cells assessed as accumulation at G2/M phase at 6.2 uM by RNAse A/PI staining based flow cytometric analysis relative to control
HeLa [29] = experiment: Induction of cell cycle arrest in human HeLa cells assessed as accumulation at G2/M phase at 12.3 uM by RNAse A/PI staining based flow cytometric analysis relative to control
HeLa [30] = experiment: Induction of cell cycle arrest in human HeLa cells assessed as accumulation at G2/M phase at 24.6 uM by RNAse A/PI staining based flow cytometric analysis relative to control
HeLa [31] = experiment: Induction of mitochondrial membrane potential loss in human HeLa cells assessed as decrease in fluorescence intensity […] at 6.2 uM by Rhodamine 123 staining based flow cytometric analysis (reference value: 58.0%); parameters: scale not given: the % may be the effect or the level left
HeLa [32] = experiment: Induction of mitochondrial membrane potential loss in human HeLa cells assessed as decrease in fluorescence intensity […] at 24.6 uM by Rhodamine 123 staining based flow cytometric analysis (reference value: 58.0%); parameters: scale not given: the % may be the effect or the level left

CC[C@H](C)[C@@H]1NC(=O)[C@H](CC(C)C)NC(=O)[C@@H]2CSCN2C(=O)[C@@H]2CSCN2C(=O)CN2C(=O)c3ccccc3[C@@]2(O)CN(Cc2ccccc2)C1=O
Activity (HeLa [1]): 0.9% | Activity (HeLa [2]): 6.4% | Activity (HeLa [3]): 34.6% | viability at 26.1 µM (HeLa [4]): 58% | Activity (HeLa [5]): 5.6% | Activity (HeLa [6]): 2.6% | viability at 19.6 µM (HeLa [7]): 68.6% | Activity (HeLa [8]): 23.3% | Activity (HeLa [9]): 6.7% | Activity (HeLa [10]): 33.1% | Activity (HeLa [11]): 28.8% | Activity (HeLa [12]): 11.5% | Activity (HeLa [13]): 16.8% | Activity (HeLa [14]): 20.6% | Activity (HeLa [15]): 10.2% | Activity (HeLa [16]): 11% | Activity (HeLa [17]): 24.9% | Activity (HeLa [18]): 11.1% | Activity (HeLa [19]): 17% | Activity (HeLa [20]): 9.53% | Activity (HeLa [21]): 14.9% | Activity (HeLa [22]): 28.1% | Activity (HeLa [23]): 21.3% | Activity (HeLa [24]): 14.4% | Activity (HeLa [25]): 28.8% | Activity (HeLa [26]): 5.72% | Activity (HeLa [27]): 47.5% | Activity (HeLa [28]): 17% | Activity (HeLa [29]): 35.7% | Activity (HeLa [30]): 47.5% | Activity (HeLa [31]): 52.6% | Activity (HeLa [32]): 19.4%
